# According to patent US20160338935A1, “PROCESS FOR THE PURIFICATION OF HEPARAN SULFATE AND USE THEREOF IN COSMETOLOGICAL AND DERMATOLOGICAL PREPARATIONS” (LABORATORI DERIVATI ORGANICI SPA, priority 2008, published 2016):
# Experiments:
# melanoma cells B16 = assay: In vitro bleaching (whitening) activity: melanin content on melanoma cells B16; assay type: cell-based
# Description: The in vitro whitening effect of HS was detected by measurement of melanin content on melanoma cells B16 (fibroblast-like cells able to produce melanin) after 6 days of contact with HS at 2 different concentrations: 0.1 mg/ml (0.01%) and 0.05 mg/ml (0.005%).
# The negative control (NC) was represented by untreated cells (cell without any substance). The positive control (PC) was represented by cells treated with Hydroquinone 5 μg/ml (0.0005%).
# [1] = test system: human keratinocytes cell cultures; assay: In vitro anti-oxidant activity against UVA: ROS reduction on human keratinocytes cell cultures; assay type: cell-based; conditions: for inhibition at 150 µg/mL: Homo sapiens, Keratinocyte, light or radiation study, Vit C 0.15 mg/ml
# Description: In vitro Evaluation of the anti-ageing activity of cosmetic products through the investigation of their anti-oxidant and protective activity against UVA on human keratinocytes cell cultures. The antioxidant effect of HS is detected by measurement of reduction of free radicals as Reactive Oxygen Species (ROS) after exposure to 3 different UVA irradiation for 1 minute and 30 seconds (1′ 30″), for 3 minutes (3′) and for 4 minutes and 30 seconds (4′ 30″), with HS at 7 different concentrations: 0.031 mg/ml (0.0031%), 0.063 mg/ml (0.0063%), 0.125 mg/ml (0.0125%), 0.250 mg/ml (0.0250%), 0.500 mg/ml (0.0500%), 1.000 mg/ml (0.1000%) and […]. The negative control (NC) was: untreated cells (cells without any substance). The positive control (PC) was: Vitamin C (0.15 mg/ml) (0.015%).
# fibroblast cells = assay: In vitro mitogenic activity: fibroblast cells proliferation and protein synthesis; assay type: cell-based
# Description: The mitogenic effect of HS is detected by measurement of fibroblast cells proliferation, measurement of protein synthesis after exposure for 48 hours and 72 hours, using HS at 2 different concentrations: 0.1 mg/ml (0.01%) and 0.05 mg/ml (0.005%). The negative control (NC) is represented by untreated cells, the positive control (PC) is: EGF (Epidermal Growth Factor) (10 μg/ml) (0.001%).
# basophil cells = assay: In vitro degranulation test on basophil cells (release of β-hexosaminidase); assay type: cell-based
# Description: Basophil cells, when come in contact with irritant substances, give their biochemical response that is the secretion (by degranulation) of substances (such as histamine, leukotriens, proteolytic enzymes as hexosaminidase) that contribute to inflammatory events.
# Inhibition in basophil cells degranulation is a measure of lenitive (anti-itching) effect of a substance. The in vitro lenitive effect of HS was detected by measurement of the release of β-hexosaminidase after 2 h of contact with HS at 4 different concentrations: 10 mg/ml (1%), 5 mg/ml (0.5%), 1 mg/ml (0.1%), 0.2 mg/ml (0.02%).
# The negative control (NC) was represented by untreated cells (cells without any substance). The positive control (PC) was represented by basophil degranulation stimuli (by crosslinking the receptor FcεRI with a specific polyclonal antibody against to the α-chain stimulate the degranulation). The maximal stimulation (degranulation) is: cell treated with 1% Triton X-100. […]
# [2] = APTT (European Pharmacopeia, 4th edition); conditions: purified heparan sulfate
# Description: Organic sulfur, Uronic acid, Glucosamine, Optical rotation, total nitrogen and APTT were measured in accordance with the European Pharmacopeia, 4th edition. Electrophoresis was performed in accordance with R. Cappelletti et al. “A new Electrophoretic method for the separation of all Gags” Anal. Biochem. 99:311-315 (1979).
# [3] = Hydroquinone 0.0005% (5 μg/ml), positive control
# [4] = HS 0.005% (0.05 mg/ml), 6 days of contact
# [5] = HS 0.01% (0.1 mg/ml), 6 days of contact
molecule,measurement,setting,value
"Oc1ccc(O)cc1 [Hydroquinone, reference compound]",% Melanin Synthesis Inhibition vs NC,melanoma cells B16; [3],76.8%
same,Melanin Content (μg melanin/mg protein),melanoma cells B16; [3],10.8 μg melanin/mg protein
"O=C1O[C@H]([C@@H](O)CO)C(O)=C1O [Vit C, Vitamin C, reference compound]",inhibition at 150 µg/mL,[1]; 1′30″ UVA,33.5%
same,inhibition at 150 µg/mL,[1]; 3′00″ UVA,31.4%
same,inhibition at 150 µg/mL,[1]; 4′30″ UVA,12.7%
"EGF: EGF (Epidermal Growth Factor), positive control [reference compound]",% cell proliferation vs NC,"fibroblast cells; 48 h, EGF 10 μg/ml (0.001%)",112.5%
same,% protein synthesis vs NC,"fibroblast cells; 48 h, EGF 10 μg/ml (0.001%)",116.6%
same,% cell proliferation vs NC,"fibroblast cells; 72 h, EGF 10 μg/ml (0.001%)",121.6%
same,% protein synthesis vs NC,"fibroblast cells; 72 h, EGF 10 μg/ml (0.001%)",119.0%
Triton X-100 [reference compound],release of β-hexosaminidase OD at 450 nm,basophil cells; maximal stimulation: 1% Triton X-100,0.377 OD
heparan sulphate sodium salt [HS],in vitro whitening effect,"melanoma cells B16; 0.1 and 0.05 mg/ml, 6 days",shows in vitro whitening effect
same,% Melanin Synthesis Inhibition vs NC,melanoma cells B16; [4],5.2%
same,Melanin Content (μg melanin/mg protein),melanoma cells B16; [4],44.4 μg melanin/mg protein
same,% Melanin Synthesis Inhibition vs NC,melanoma cells B16; [5],10.3%
same,Melanin Content (μg melanin/mg protein),melanoma cells B16; [5],41.9 μg melanin/mg protein
same,% cell proliferation vs NC,"fibroblast cells; 48 h, HS 0.05 mg/ml (0.005%)",106.7%
same,% protein synthesis vs NC,"fibroblast cells; 48 h, HS 0.05 mg/ml (0.005%)",110.2%
same,% cell proliferation vs NC,"fibroblast cells; 48 h, HS 0.1 mg/ml (0.01%)",110.5%
same,% protein synthesis vs NC,"fibroblast cells; 48 h, HS 0.1 mg/ml (0.01%)",103.1%
same,% cell proliferation vs NC,"fibroblast cells; 72 h, HS 0.05 mg/ml (0.005%)",118.2%
same,% protein synthesis vs NC,"fibroblast cells; 72 h, HS 0.05 mg/ml (0.005%)",120.4%
same,% cell proliferation vs NC,"fibroblast cells; 72 h, HS 0.1 mg/ml (0.01%)",118.1%
same,% protein synthesis vs NC,"fibroblast cells; 72 h, HS 0.1 mg/ml (0.01%)",113.2%
same,highest effect for cell proliferation (increase over NC),"fibroblast cells; 72 hour, 0.05 mg/ml",18.2%
same,highest effect for protein synthesis (increase over NC),"fibroblast cells; 72 hour, 0.05 mg/ml",20.4%
same,ROS Inhibition %,"[1]; 1′30″ UVA, HS 0.031 mg/ml",25.3%
same,ROS Inhibition %,"[1]; 1′30″ UVA, HS 0.063 mg/ml",25.4%
same,ROS Inhibition %,"[1]; 1′30″ UVA, HS 0.125 mg/ml",23.5%
same,ROS Inhibition %,"[1]; 1′30″ UVA, HS 0.250 mg/ml",28.0%
same,ROS Inhibition %,"[1]; 1′30″ UVA, HS 0.500 mg/ml",30.6%
same,ROS Inhibition %,"[1]; 1′30″ UVA, HS 1.000 mg/ml",38.7%
same,ROS Inhibition %,"[1]; 1′30″ UVA, HS 9.000 mg/ml",30.7%
same,ROS Inhibition %,"[1]; 3′00″ UVA, HS 0.031 mg/ml",20.1%
same,ROS Inhibition %,"[1]; 3′00″ UVA, HS 0.063 mg/ml",21.8%
same,ROS Inhibition %,"[1]; 3′00″ UVA, HS 0.125 mg/ml",14.2%
same,ROS Inhibition %,"[1]; 3′00″ UVA, HS 0.250 mg/ml",22.9%
same,ROS Inhibition %,"[1]; 3′00″ UVA, HS 0.500 mg/ml",29.1%
same,ROS Inhibition %,"[1]; 3′00″ UVA, HS 1.000 mg/ml",35.7%
same,ROS Inhibition %,"[1]; 3′00″ UVA, HS 9.000 mg/ml",31.6%
same,ROS Inhibition %,"[1]; 4′30″ UVA, HS 0.031 mg/ml",6.2%
same,ROS Inhibition %,"[1]; 4′30″ UVA, HS 0.063 mg/ml",13.7%
same,ROS Inhibition %,"[1]; 4′30″ UVA, HS 0.125 mg/ml",10.3%
same,ROS Inhibition %,"[1]; 4′30″ UVA, HS 0.250 mg/ml",18.1%
same,ROS Inhibition %,"[1]; 4′30″ UVA, HS 0.500 mg/ml",24.7%
same,ROS Inhibition %,"[1]; 4′30″ UVA, HS 1.000 mg/ml",30.4%
same,ROS Inhibition %,"[1]; 4′30″ UVA, HS 9.000 mg/ml",26.3%
same,antioxidant efficacy compared with Vitamin C,[1]; HS at 0.1% concentration,comparable or even higher than the efficacy of Vitamin C
same,release of β-hexosaminidase OD at 450 nm,basophil cells; HS 0.2 mg/ml + PC (degranulation stimulus),0.112 OD
same,release of β-hexosaminidase OD at 450 nm,"basophil cells; HS 0.2 mg/ml alone, 2 h of contact",0.061 OD
same,release of β-hexosaminidase OD at 450 nm,basophil cells; HS 1 mg/ml + PC (degranulation stimulus),0.110 OD
same,release of β-hexosaminidase OD at 450 nm,"basophil cells; HS 1 mg/ml alone, 2 h of contact",0.062 OD
same,release of β-hexosaminidase OD at 450 nm,basophil cells; HS 5 mg/ml + PC (degranulation stimulus),0.055 OD
same,release of β-hexosaminidase OD at 450 nm,"basophil cells; HS 5 mg/ml alone, 2 h of contact",0.059 OD
same,release of β-hexosaminidase OD at 450 nm,basophil cells; HS 10 mg/ml + PC (degranulation stimulus),0.061 OD
same,release of β-hexosaminidase OD at 450 nm,"basophil cells; HS 10 mg/ml alone, 2 h of contact",0.066 OD
same,level of β-hexosaminidase with irritant substance (positive control) and HS,"basophil cells; HS + PC, best efficacy at 0.5% and 1%",decrease in a dose dependent way
same,effect on basophil cells degranulation,basophil cells; HS alone at different concentration,no effect on basophil cells degranulation
same,APTT,[2],6.31 U/mg
